Results reported in ChEMBL document CHEMBL5537123, “Discovery of triazole tethered thymol/carvacrol-coumarin hybrids as new class of α-glucosidase inhibitors with potent in vivo antihyperglycemic activities” (Eur J Med Chem, 2024).

Legend:
Alpha-glucosidase = Alpha-glucosidase (Saccharomyces cerevisiae S288c, UniProt P53341+P38158+P07265); experiment: Inhibition of Saccharomyces cerevisiae alpha-glucosidase using pNPG as substrate preincubated with compound for 20 mins followed by substrate addition measured after 1 hrs by absorbance based analysis; type: protein assay
Alpha-amylase = biological target: T1, Alpha-amylase (Sus scrofa domesticus, UniProt Q7M328); experiment: Inhibition of porcine pancreatic alpha-amylase using pNPG as substrate preincubated with compound for 20 mins followed by substrate addition measured after 1 hrs by absorbance based analysis
T1 sequence (Q7M328 whole entry): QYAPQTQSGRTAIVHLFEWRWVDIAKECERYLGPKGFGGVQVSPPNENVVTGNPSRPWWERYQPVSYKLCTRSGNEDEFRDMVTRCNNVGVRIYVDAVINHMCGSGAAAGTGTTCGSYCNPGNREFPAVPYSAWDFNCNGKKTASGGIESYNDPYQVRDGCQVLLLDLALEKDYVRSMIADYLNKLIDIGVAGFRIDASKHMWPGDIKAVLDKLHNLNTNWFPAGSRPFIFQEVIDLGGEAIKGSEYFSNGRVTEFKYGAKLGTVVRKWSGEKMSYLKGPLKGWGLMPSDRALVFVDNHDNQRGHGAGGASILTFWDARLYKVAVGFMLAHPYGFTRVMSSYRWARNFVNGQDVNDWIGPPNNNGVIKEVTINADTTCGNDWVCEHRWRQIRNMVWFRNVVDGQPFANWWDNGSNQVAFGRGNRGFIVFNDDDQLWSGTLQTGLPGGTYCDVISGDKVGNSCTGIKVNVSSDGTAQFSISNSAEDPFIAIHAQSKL

Rattus norvegicus [1] = experiment: Hypoglycemic activity in streptozotocin-induced diabetic Wistar rat model assessed as decrease in blood glucose level at 10 mg/kg, po administered for 5 days and measured after 1 hr by maltose loading test relative to control; type: functional; set-up: scale not given: the % may be the effect or the level left; conditions: time 121 hrs
Rattus norvegicus [2] = experiment: Hypoglycemic activity in streptozotocin-induced diabetic Wistar rat model assessed as decrease in blood glucose level at 10 mg/kg, po administered for 5 days and measured after 1 hr by sucrose loading test relative to control; type: functional; set-up: scale not given: the % may be the effect or the level left; conditions: time 121 hrs
Rattus norvegicus [3] = experiment: Hypoglycemic activity in streptozotocin-induced diabetic Wistar rat model assessed as reduction in fasting blood glucose level at 10 mg/kg, po measured every 7 days for 28 days relative to control; type: functional; set-up: scale not given: the % may be the effect or the level left; conditions: time 7 day
Origanum vulgare = experiment: Inhibition of Origanum vulgare alpha-glucosidase at 18 microg/ml relative to control; conditions: dose 18.0 µg/ml
[4] = Inhibition of alpha-glucosidase (unknown origin); set-up: species or system Homo sapiens
[5] = Selectivity index, ratio of IC50 for inhibition of porcine pancreatic alpha-amylase using pNPG as substrate to IC50 for inhibition of Saccharomyces cerevisiae alpha-glucosidase using pNPG as substrate

| Compound | IC50 (Alpha-glucosidase) [µM] | IC50 (Alpha-amylase) [µM] | also measured |
| --- | --- | --- | --- |
| Cc1ccc(C(C)C)c(OCc2cn(CCCCCCOc3cc(=O)oc4ccccc34)nn2)c1 | 16.32 | > 100 | – |
| Cc1ccc(C(C)C)c(OCc2cn(CCCOc3cc(=O)oc4ccccc34)nn2)c1 | 37.59 | > 100 | – |
| Cc1ccc(C(C)C)cc1OCc1cn(CCCCOc2cc(=O)oc3ccccc23)nn1 | 26.48 | > 100 | – |
| Cc1ccc(C(C)C)c(OCc2cn(CCCCCOc3ccc4ccc(=O)oc4c3)nn2)c1 | > 100 | > 100 | – |
| C[C@H]1O[C@H](O[C@H]2[C@H](O)[C@@H](O)[C@@H](O[C@H]3[C@H](O)[C@@H](O)C(O)O[C@@H]3CO)O[C@@H]2CO)[C@H](O)[C@@H](O)[C@@H]1N[C@H]1C=C(CO)[C@@H](O)[C@H](O)[C@H]1O (stereo partly specified) [ACARBOSE] | – | – | Activity (Rattus norvegicus [1]): 53.01%; Activity (Rattus norvegicus [2]): 56.31%; Activity (Rattus norvegicus [3]): 25.86% |
| Cc1ccc(C(C)C)c(OCc2cn(CCCCOc3ccc4ccc(=O)oc4c3)nn2)c1 | > 100 | > 100 | – |
| Cc1ccc(C(C)C)cc1OCc1cn(CCCOc2cc(=O)oc3ccccc23)nn1 | 68.51 | > 100 | – |
| Cc1ccc(C(C)C)cc1OS(=O)(=O)c1ccc(F)cc1 | – | – | inhibition (Origanum vulgare): 57.7%; IC50 [4]: 2.56 µM |
| Cc1ccc(C(C)C)c(OCc2cn(CCCCOc3cc(=O)oc4ccccc34)nn2)c1 | 25.36 | 77.5 | Ratio IC50 [5]: 3.06 |
| Cc1ccc(C(C)C)c(OCc2cn(CCCOc3ccc4ccc(=O)oc4c3)nn2)c1 | 72.91 | > 100 | – |
| Cc1ccc(C(C)C)cc1OCc1cn(CCCCCCOc2ccc3ccc(=O)oc3c2)nn1 | > 100 | > 100 | – |
| Cc1ccc(C(C)C)c(OCc2cn(CCOc3ccc4ccc(=O)oc4c3)nn2)c1 | 56.41 | > 100 | – |
